{"source": "patent US12629415B2", "about": "“Vaccine adjuvants” (THE PROVOST, FELLOWS, FOUNDATION SCHOLARS, AND THE OTHER …, priority 2018, dated 2026)", "tested_on": "mononuclear cells from cord blood, children's blood or adult blood", "assay": "HEK-Blue IFNα/β and TNFα assays on mononuclear cells of cord blood, children and adults", "assay_type": "cell-based, human", "conditions": "transfection 24 h, 4-24 months, 2-5 years, 6-11 years", "description": "Umbilical cord blood samples were obtained from term births following normal pregnancy, labour and delivery at National Maternity Hospital (NMH), Holles St, Dublin 2. […] Venous blood from infants, children and adolescents of various ages was collected during elective surgical procedures where no indication of infection was present (such as hydrocele repair, umbilical hernia repair, onychocryptosis, orchipexy repair) in Our Lady's Children's Hospital Crumlin (OLCHC), Dublin 12. […] Volumes drawn were age and weight dependent, according to standard, approved guidelines. Ethics approval was obtained from the Ethics Committees of NMH and OLCHC and informed consent was obtained from each subject or their parent/guardian. Adult blood samples were from healthy adults, supplied by the Irish Blood Transfusion Service. • Poly(I:C), Poly(dA:dT) and cGAMP were obtained from Invivogen • Poly (dA:dT) is a repetitive synthetic double-stranded DNA sequence of poly(dA-dT)-poly(dT-dA) http://www.invivopen.com/poly-dadt-naked • Poly (I:C) comprises long strands of inosine poly(I) homopolymer annealed to strands of cytidine poly(C) homopolymer http://www.invivogen.com/polyic-hmw. • cGAMP is cyclic [G(2′,5′)pA(3′,5′)p]; Formula: […], 2Na Methodology\nIsolation of mononuclear cells and monocytes—Primary PBMCs or CBMCs were isolated from healthy human blood or cord blood. Monocytes were isolated by negative selection using Monocyte Isolation Kit II (Miltenyi). Monocyte purity was assessed using CD14 staining and was routinely 85-95%. Cells were cultured at 37° C., 5% CO2, 95% air in RPMI-1640, with stable 2.5 mM L-glutamine and 0.5 mM sodium pyruvate with 10% FBS (all from Sigma-Aldrich).\nPoly(I:C) (5 μg/ml) (Invivogen), Poly(dA:dT) (5 μg/ml) (Sigma-Aldrich), 2′3′ cGAMP (10 μg/ml), 5′ triphosphate double stranded RNA (5′ ppp dsRNA) (2.5 μg/ml) and HSV-60 (2 μg/ml) (all from Invivogen) were transfected into PBMCs or CBMCs using TransIT-X2 (Mirus).\nMeasurement of cytokines—HEK Blue TNFα/IFNα/β Assays were performed as per the manufacturer's (Invivogen) instructions using Quanti-Blue Detection Reagent. SEAP levels were determined using a spectrophotometer plate reader at 630 nm. IFNα (3425-1H-6, Mabtech) and IP-10 (DY266, R&D Systems) were detected by sandwich ELISA. IFNα ELISA used pan specific IFNα antibodies, which allows detection of IFNα subtypes 1/13, 2, 4, 5, 6, 7, 8, 10, 14, 16 and 17. BioLegend LEGENDplex™ Human Inflammation Panel (13-plex) was carried out as per manufacturer's (Biolegend) instructions to determine levels of IFNγ, IL-10, IL-12p70 and IL-23. A BD LSR Fortessa cell analyser was used to acquire samples and BioLegend LEGENDplex™ software was used for analysis.", "note": "“Also recorded” adds a separate entry of the source.", "data": [{"substance": "poly(deoxyadenylic-thymidylic) acid [Poly(dA:dT)]", "values": [{"measurement": "TNFα production across age groups", "value": "maintenance of cord blood responsiveness to CNA was also observed for both Poly(I:C) and Poly(dA:dT)-induced TNFα production to the age of 24 months"}, {"measurement": "production of type I IFN across age groups", "value": "maintained throughout childhood; also recorded: maintained across all age groups"}]}]}
